Assay results reported in patent EP4786487A1, “PEPTIDE” (Peptidream Inc, priority 2023, dated 2025).
Starred links: 1 amine or outer side, 2 acyl side, 3 side chain; linkers in the order of their positions; H or OH if unused. Positions of bridges follow the written chain, without caps; N, C: chain ends. Non-standard residues stand in square brackets, D forms with d. Residues, ends and D or L forms follow the SMILES beside them. *: point of attachment. Phe(3-OCH2COOH) = N[C@@H](Cc1cccc(OCC(=O)O)c1)C(=O)O; Phe(4-COOH) = N[C@@H](Cc1ccc(C(=O)O)cc1)C(=O)O; Trp(7-aza) = N[C@@H](Cc1c[nH]c2ncccc12)C(=O)O; Piperazinyl(4-CH2COOH) = O=C(O)CN1CCN(*)CC1; Bip = N[C@@H](Cc1ccc(-c2ccccc2)cc1)C(=O)O; Gly(N(CH2)3COOH) = O=C(O)CCCNCC(=O)O; NMe3Pal = CN[C@@H](Cc1cccnc1)C(=O)O; NMeY = CN[C@@H](Cc1ccc(O)cc1)C(=O)O; X1 = CCCCCCC[C@H](N[*:1])C(=O)[*:2]; NMeCha = CN[C@@H](CC1CCCCC1)C(=O)O; NMeF = CN[C@@H](Cc1ccccc1)C(=O)O; Carboxymethyl = O=C(O)C*; NMeA = CN[C@@H](C)C(=O)O; Sar = CNCC(=O)O

Assays:
Type in all cases: cell-based
GDF-11 = target: T1, GDF-11 (Homo sapiens, UniProt O95390); test: Reporter gene assay for myostatin signaling in HepG2 cell line, Evaluation Procedure (1), GDF-11 inhibition; details: Method A: GDF-11 10 ng/mL; read-out: IC50 (Luciferase) GDF-11 HepG2
T1 construct: purchased R&D systems 1958-GD-G8/CF
T1 sequence (O95390 299-407): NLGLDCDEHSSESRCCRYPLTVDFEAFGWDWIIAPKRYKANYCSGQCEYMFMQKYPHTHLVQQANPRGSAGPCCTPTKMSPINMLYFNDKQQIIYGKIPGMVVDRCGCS
How it was run: (§1)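 HepG2 cells transfected with pGL3(CAGA)12-luciferase reporter, serum-starved in 0.1% BSA medium, then stimulated with myostatin or GDF-11 plus 4-fold peptide dilutions (0.006–100 nmol/L for myostatin, 0.12–2000 nmol/L for GDF-11) for 20–24 h at 37 °C. Luminescence read with One-Glo; IC50 calculated.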

Myostatin [1] = test: Reporter gene assay for myostatin signaling in HepG2 cell line, Evaluation Procedure (1), myostatin inhibition; details: Method A; GDF-11 IC50 versus Myostatin IC50
How it was run: as §1

Myostatin [2] = target: T2, Myostatin (Homo sapiens, UniProt O14793); test: as above; details: Method A: Myostatin 10 ng/mL; read-out: IC50 (Luciferase) Myostatin HepG2
T2 construct: active myostatin (also called mature myostatin) is a homodimer consisting of two C-terminal growth factor domains; purchased R&D systems 788-G8/CF
T2 sequence (O14793 267-375): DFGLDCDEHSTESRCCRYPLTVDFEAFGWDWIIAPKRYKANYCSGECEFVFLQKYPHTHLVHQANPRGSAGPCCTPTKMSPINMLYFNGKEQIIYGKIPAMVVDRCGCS
How it was run: as §1

Row | SMILES | IC50 (GDF-11) | Selectivity (Myostatin [1]) | IC50 (Myostatin [2])
1 | CCCCCCC[C@@H]1NC(=O)[C@H](Cc2ccccc2)N(C)C(=O)[C@H](CCCNC(=N)N)NC(=O)[C@H](Cc2ccc(C(=O)O)cc2)NC(=O)[C@H](Cc2ccc(O)cc2)NC(=O)[C@H](C)N(C)C(=O)[C@H]([C@@H](C)CC)NC(=O)[C@H](Cc2ccccc2)N(C)C(=O)[C@H](Cc2ccc(O)cc2)NC(=O)[C@H](Cc2c[nH]c3ccccc23)NC(=O)[C@H](C)NC(=O)CN(CCCC(=O)O)C(=O)CSC[C@H](C(=O)O)NC(=O)[C@H](Cc2ccccc2)N(C)C(=O)[C@H](C)N(C)C1=O [Myostatin_99_v181] ({CH2CO}-[Gly(N(CH2)3COOH)]AWY[NMeF]I[NMeA]Y[Phe(4-COOH)]R[NMeF][X1][NMeA][NMeF][dC]-OH; thioether N-15) | 0.194 µM | 43 | 0.0045 µM
2 | CCCCCCC[C@@H]1NC(=O)[C@H](Cc2ccccc2)N(C)C(=O)[C@H](CCCNC(=N)N)NC(=O)[C@H](Cc2ccc(C(=O)O)cc2)NC(=O)[C@H](Cc2cccc(OCC(=O)O)c2)NC(=O)CN(C)C(=O)[C@H]([C@@H](C)CC)NC(=O)[C@H](Cc2ccccc2)N(C)C(=O)[C@H](Cc2ccc(O)cc2)NC(=O)[C@H](Cc2c[nH]c3ccccc23)NC(=O)[C@H](C)NC(=O)[C@H](C)NC(=O)CSC[C@H](C(=O)O)NC(=O)[C@H](Cc2cccnc2)N(C)C(=O)[C@H](C)N(C)C1=O [Myostatin_99_v214] ({CH2CO}-AAWY[NMeF]I[Sar][Phe(3-OCH2COOH)][Phe(4-COOH)]R[NMeF][X1][NMeA][NMe3Pal][dC]-OH; thioether N-15) | 1.32 µM | 201 | 0.0066 µM
3 | CCCCCCC[C@@H]1NC(=O)[C@H](Cc2ccccc2)N(C)C(=O)[C@H](CCCNC(=N)N)NC(=O)[C@H](Cc2ccc(C(=O)O)cc2)NC(=O)[C@H](Cc2cccc(OCC(=O)O)c2)NC(=O)CN(C)C(=O)[C@H]([C@@H](C)CC)NC(=O)[C@H](Cc2ccccc2)N(C)C(=O)[C@H](Cc2ccc(O)cc2)NC(=O)[C@H](Cc2c[nH]c3ccccc23)NC(=O)[C@H](CO)NC(=O)[C@H](C)NC(=O)CSC[C@H](C(=O)O)NC(=O)[C@H](Cc2ccccc2)N(C)C(=O)[C@H](C)N(C)C1=O [Myostatin_99_v159] ({CH2CO}-ASWY[NMeF]I[Sar][Phe(3-OCH2COOH)][Phe(4-COOH)]R[NMeF][X1][NMeA][NMeF][dC]-OH; thioether N-15) | 0.404 µM | 104 | 0.0039 µM
4 | CC[C@H](C)[C@@H]1NC(=O)[C@H](Cc2ccccc2)N(C)C(=O)[C@H](Cc2ccc(O)cc2)NC(=O)[C@H](Cc2c[nH]c3ccccc23)NC(=O)[C@H](C)NC(=O)[C@H](C)NC(=O)CSC[C@H](C(=O)O)NC(=O)[C@H](Cc2ccccc2)N(C)C(=O)[C@H](C)N(C)C(=O)[C@H](CC(C)C)NC(=O)[C@H](Cc2ccccc2)N(C)C(=O)[C@H](CCCNC(=N)N)NC(=O)[C@H](Cc2ccc(C(=O)O)cc2)NC(=O)[C@H](Cc2ccc(O)cc2)NC(=O)[C@H](C)N(C)C1=O [Myostatin_99_v191] ({CH2CO}-AAWY[NMeF]I[NMeA]Y[Phe(4-COOH)]R[NMeF]L[NMeA][NMeF][dC]-OH; thioether N-15) | 0.283 µM | 35 | 0.0081 µM
5 | CCCCCCC[C@@H]1NC(=O)[C@H](Cc2ccccc2)N(C)C(=O)[C@H](CCCNC(=N)N)NC(=O)[C@H](Cc2ccc(C(=O)O)cc2)NC(=O)[C@H](Cc2cccc(OCC(=O)O)c2)NC(=O)CN(C)C(=O)[C@H]([C@@H](C)CC)NC(=O)[C@H](Cc2ccccc2)N(C)C(=O)[C@H](Cc2ccc(O)cc2)NC(=O)[C@H](Cc2c[nH]c3ccccc23)NC(=O)[C@H](C)NC(=O)[C@H](C)NC(=O)CSC[C@H](C(=O)N2CCN(CC(=O)O)CC2)NC(=O)[C@H](Cc2ccccc2)N(C)C(=O)[C@H](C)N(C)C1=O [Myostatin_99_v221] ({CH2CO}-AAWY[NMeF]I[Sar][Phe(3-OCH2COOH)][Phe(4-COOH)]R[NMeF][X1][NMeA][NMeF][dC]-{Piperazinyl(4-CH2COOH)}; thioether N-15) | 0.072 µM | 80 | 0.0009 µM
6 | CCCCCCC[C@@H]1NC(=O)[C@H](Cc2ccccc2)N(C)C(=O)[C@H](CCCNC(=N)N)NC(=O)[C@H](Cc2ccc(C(=O)O)cc2)NC(=O)[C@H](Cc2cccc(OCC(=O)O)c2)NC(=O)CN(C)C(=O)[C@H]([C@@H](C)CC)NC(=O)[C@H](Cc2ccc(O)cc2)N(C)C(=O)[C@H](Cc2ccc(O)cc2)NC(=O)[C@H](Cc2ccc(-c3ccccc3)cc2)NC(=O)[C@H](C)NC(=O)CN(CCCC(=O)O)C(=O)CSC[C@H](C(=O)O)NC(=O)[C@H](Cc2ccccc2)N(C)C(=O)[C@H](C)N(C)C1=O [Myostatin_99_v117] ({CH2CO}-[Gly(N(CH2)3COOH)]A[Bip]Y[NMeY]I[Sar][Phe(3-OCH2COOH)][Phe(4-COOH)]R[NMeF][X1][NMeA][NMeF][dC]-OH; thioether N-15) | 0.713 µM | 419 | 0.0017 µM
7 | CC[C@H](C)[C@@H]1NC(=O)[C@H](Cc2ccccc2)N(C)C(=O)[C@H](Cc2ccc(O)cc2)NC(=O)[C@H](Cc2c[nH]c3ccccc23)NC(=O)[C@H](C)NC(=O)[C@H](C)NC(=O)CSC[C@H](C(=O)O)NC(=O)[C@H](Cc2ccccc2)N(C)C(=O)[C@H](C)N(C)C(=O)[C@H](CC(C)C)NC(=O)[C@H](Cc2ccccc2)N(C)C(=O)[C@H](CCCNC(=N)N)NC(=O)[C@H](Cc2ccc(C(=O)O)cc2)NC(=O)[C@H](Cc2cccc(OCC(=O)O)c2)NC(=O)CN(C)C1=O [Myostatin_99_v192] ({CH2CO}-AAWY[NMeF]I[Sar][Phe(3-OCH2COOH)][Phe(4-COOH)]R[NMeF]L[NMeA][NMeF][dC]-OH; thioether N-15) | 2.06 µM | 170 | 0.0121 µM
8 | CCCCCCC[C@@H]1NC(=O)[C@H](Cc2ccccc2)N(C)C(=O)[C@H](CCCNC(=N)N)NC(=O)[C@H](Cc2ccc(C(=O)O)cc2)NC(=O)[C@H](Cc2cccc(OCC(=O)O)c2)NC(=O)CN(C)C(=O)[C@H]([C@@H](C)CC)NC(=O)[C@H](Cc2ccccc2)N(C)C(=O)[C@H](Cc2ccc(O)cc2)NC(=O)[C@H](Cc2c[nH]c3ncccc23)NC(=O)[C@H](CO)NC(=O)CN(CCCC(=O)O)C(=O)CSC[C@H](C(=O)O)NC(=O)[C@H](Cc2ccccc2)N(C)C(=O)[C@H](C)N(C)C1=O [Myostatin_99_v162] ({CH2CO}-[Gly(N(CH2)3COOH)]S[Trp(7-aza)]Y[NMeF]I[Sar][Phe(3-OCH2COOH)][Phe(4-COOH)]R[NMeF][X1][NMeA][NMeF][dC]-OH; thioether N-15) | 0.09 µM | 15 | 0.0061 µM
9 | CC[C@H](C)[C@@H]1NC(=O)[C@H](Cc2ccccc2)N(C)C(=O)[C@H](Cc2ccc(O)cc2)NC(=O)[C@H](Cc2c[nH]c3ncccc23)NC(=O)[C@H](C)NC(=O)CN(CCCC(=O)O)C(=O)CSC[C@H](C(=O)O)NC(=O)[C@H](Cc2ccccc2)N(C)C(=O)[C@H](C)N(C)C(=O)[C@H](CC(C)C)NC(=O)[C@H](Cc2ccccc2)N(C)C(=O)[C@H](CCCNC(=N)N)NC(=O)[C@H](Cc2ccc(OCC(=O)O)cc2)NC(=O)[C@H](Cc2ccccc2)NC(=O)CN(C)C1=O [Myostatin_99_v43] ({CH2CO}-[Gly(N(CH2)3COOH)]A[Trp(7-aza)]Y[NMeF]I[Sar]FY(Carboxymethyl)R[NMeF]L[NMeA][NMeF][dC]-OH; thioether N-15) | 1.99 µM | 60 | 0.0332 µM
10 | CCCCCCC[C@@H]1NC(=O)[C@H](Cc2ccccc2)N(C)C(=O)[C@H](CCCNC(=N)N)NC(=O)[C@H](Cc2ccc(C(=O)O)cc2)NC(=O)[C@H](Cc2cccc(OCC(=O)O)c2)NC(=O)CN(C)C(=O)[C@H]([C@@H](C)CC)NC(=O)[C@H](CC2CCCCC2)N(C)C(=O)[C@H](Cc2ccc(O)cc2)NC(=O)[C@H](Cc2c[nH]c3ccccc23)NC(=O)[C@@H](CCC(=O)O)NC(=O)[C@H](C)NC(=O)CSC[C@H](C(=O)N2CCN(CC(=O)O)CC2)NC(=O)[C@H](Cc2ccccc2)N(C)C(=O)[C@H](C)N(C)C1=O [Myostatin_99_v255] ({CH2CO}-A[dE]WY[NMeCha]I[Sar][Phe(3-OCH2COOH)][Phe(4-COOH)]R[NMeF][X1][NMeA][NMeF][dC]-{Piperazinyl(4-CH2COOH)}; thioether N-15) | 0.191 µM | 119 | 0.0016 µM
11 | CCCCCCC[C@@H]1NC(=O)[C@H](Cc2ccccc2)N(C)C(=O)[C@H](CCCNC(=N)N)NC(=O)[C@H](Cc2ccc(OCC(=O)O)cc2)NC(=O)[C@H](Cc2cccc(OCC(=O)O)c2)NC(=O)[C@H](C)N(C)C(=O)[C@H]([C@@H](C)CC)NC(=O)[C@H](Cc2ccccc2)N(C)C(=O)[C@H](Cc2ccc(O)cc2)NC(=O)[C@H](Cc2c[nH]c3ncccc23)NC(=O)[C@H](C)NC(=O)CN(CCCC(=O)O)C(=O)CSC[C@H](C(=O)O)NC(=O)[C@H](Cc2ccccc2)N(C)C(=O)[C@H](C)N(C)C1=O [Myostatin_99_v153] ({CH2CO}-[Gly(N(CH2)3COOH)]A[Trp(7-aza)]Y[NMeF]I[NMeA][Phe(3-OCH2COOH)]Y(Carboxymethyl)R[NMeF][X1][NMeA][NMeF][dC]-OH; thioether N-15) | 0.267 µM | 222 | 0.0012 µM
